Source: US10710986B2, “PD-1/PD-L1 inhibitors” (Gilead Sciences, Inc., priority 2018, dated 2020)

Molecular target: PD-1/PD-L1 (Homo sapiens (Human), UniProt Q9NZQ7)
Test: PD-1/PD-L1 biochemical protein-protein interaction assay (ALPHA)
Conditions: 0.3 nM His tagged PD-L1, 2.5 nM biotinylated Fc-PD-1, 60 minutes at 25° C., read-out: IC50 PD-L1-PD1

Chain of PD-1/PD-L1 (Q9NZQ7 19-238): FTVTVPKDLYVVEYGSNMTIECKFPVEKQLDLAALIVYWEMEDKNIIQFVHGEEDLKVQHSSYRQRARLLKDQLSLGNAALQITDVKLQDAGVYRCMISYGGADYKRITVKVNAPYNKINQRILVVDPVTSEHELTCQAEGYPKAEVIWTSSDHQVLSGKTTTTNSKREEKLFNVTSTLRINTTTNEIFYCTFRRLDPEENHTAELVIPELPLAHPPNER

SMILES | IC50 [nM]
COc1nc(-c2cccc(-c3cccc(-c4cnc(CN[C@@H]5CNC(=O)C5)c(OC)n4)c3Cl)c2Cl)cnc1CNC[C@H]1CCC(=O)N1 [compound 199] | 0.126
COc1nc(-c2cccc(-c3cccc(-c4cnc(CNC5CCC6(CNC(=O)C6)C5)c(OC)n4)c3Cl)c2Cl)cnc1CNC[C@H]1CCC(=O)N1 (stereo partly shown) [compound 202] | 0.144
COc1nc(-c2cccc(-c3cccc(-c4cnc(CNC5CC6(C5)CN(C(C)=O)C6)c(OC)n4)c3Cl)c2Cl)cnc1CNC[C@H]1CCC(=O)N1 [compound 208] | 0.223
COc1nc(-c2cccc(-c3cccc(-c4cnc(CNC5CCc6cn[nH]c6C5)c(OC)n4)c3Cl)c2Cl)cnc1CNC[C@@H]1CCC(=O)N1 (stereo partly shown) [compound 212] | 0.48
COc1nc(-c2cccc(-c3cccc(-c4cnc(CNCC5(C#N)CCC5)c(OC)n4)c3Cl)c2Cl)cnc1CNC[C@@H]1CCC(=O)N1 [compound 213] | 0.84
COC[C@@H]1CC[C@H]1NCc1ncc(-c2cccc(-c3cccc(-c4cnc(CNC[C@@H]5CCC(=O)N5)c(OC)n4)c3Cl)c2Cl)nc1OC [compound 215] | 0.11
COc1nc(-c2cccc(-c3cccc(-c4cnc(CN5CC[C@@H]6CC[C@@H](O)[C@@H]65)c(OC)n4)c3Cl)c2Cl)cnc1CNC[C@@H]1CCC(=O)N1 [compound 216] | 0.21
COc1nc(-c2cccc(-c3cccc(-c4cnc(CNC[C@@H]5CCC(=O)N5)c(OC)n4)c3Cl)c2Cl)cnc1CNCC1CC1CC#N (stereo partly shown) [compound 220] | 0.36
COc1nc(-c2cccc(-c3cccc(-c4cnc(CN[C@@H]5CCOC[C@H]5C)c(OC)n4)c3Cl)c2Cl)cnc1CNC[C@@H]1CCC(=O)N1 [compound 223] | 0.584
COc1nc(-c2cccc(-c3cccc(-c4cnc(CN5C[C@@H](OC)C[C@H]5CO)c(OC)n4)c3Cl)c2Cl)cnc1CNC[C@@H]1CCC(=O)N1 [compound 224] | 0.393
COc1nc(-c2cccc(-c3cccc(-c4cnc(CNC[C@H]5C[C@@H](OC)C5)c(OC)n4)c3Cl)c2Cl)cnc1CNC[C@@H]1CCC(=O)N1 [compound 228] | 0.168
COc1nc(-c2cccc(-c3cccc(-c4cnc(CN5CC[C@@H](O)[C@H](C)C5)c(OC)n4)c3Cl)c2Cl)cnc1CNC[C@@H]1CCC(=O)N1 [compound 231] | 0.064
COc1nc(-c2cccc(-c3cccc(-c4cnc(CN5CCC6(CCOC6=O)C5)c(OC)n4)c3Cl)c2Cl)cnc1CNC[C@@H]1CCC(=O)N1 (stereo partly shown) [compound 232] | 0.312
CCO[C@H]1C[C@H](NCc2ncc(-c3cccc(-c4cccc(-c5cnc(CNC[C@@H]6CCC(=O)N6)c(OC)n5)c4Cl)c3Cl)nc2OC)C1 [compound 233] | 0.451
COc1nc(-c2cccc(-c3cccc(-c4cnc(CN5CC6(CCOC6)C5)c(OC)n4)c3Cl)c2Cl)cnc1CNC[C@@H]1CCC(=O)N1 [compound 234] | 0.088
COc1nc(-c2cccc(-c3cccc(-c4cnc(CNC[C@@H]5CCC(=O)N5)c(OC)n4)c3Cl)c2Cl)cnc1CNCCC1CNC(=O)C1 (stereo partly shown) [compound 235] | 0.106
COc1nc(-c2cccc(-c3cccc(-c4cnc(CNC(CCO)C5CC5)c(OC)n4)c3Cl)c2Cl)cnc1CNC[C@@H]1CCC(=O)N1 (stereo partly shown) [compound 237] | 0.064
COCC(NCc1ncc(-c2cccc(-c3cccc(-c4cnc(CNC[C@@H]5CCC(=O)N5)c(OC)n4)c3Cl)c2Cl)nc1OC)C1CC1 (stereo partly shown) [compound 238] | 0.297
COc1nc(-c2cccc(-c3cccc(-c4cnc(CN5CC(F)(CO)C5)c(OC)n4)c3Cl)c2Cl)cnc1CN1CC(F)(CO)C1 [compound 239] | 0.3
COc1nc(-c2cccc(-c3cccc(-c4cnc(CN5CC(O)(CO)C5)c(OC)n4)c3Cl)c2Cl)cnc1CN1CC(O)(CO)C1 [compound 240] | 0.09
COc1nc(-c2cccc(-c3cccc(-c4cnc(CN[C@H]5C[C@@](C)(O)C5)c(OC)n4)c3Cl)c2Cl)cnc1CN[C@H]1C[C@@](C)(O)C1 [compound 241] | 0.27
COc1nc(-c2cccc(-c3cccc(-c4cnc(CNC[C@H]5C[C@H](O)C5)c(OC)n4)c3Cl)c2Cl)cnc1CNC[C@H]1C[C@H](O)C1 [compound 242] | 0.14
COc1nc(-c2cccc(-c3cccc(-c4cnc(CNC[C@H]5C[C@@H](O)C5)c(OC)n4)c3Cl)c2Cl)cnc1CNC[C@H]1C[C@@H](O)C1 [compound 243] | 0.11
COc1nc(-c2cccc(-c3cccc(-c4cnc(CNC(CO)CCF)c(OC)n4)c3Cl)c2Cl)cnc1CNC[C@@H]1CCC(=O)N1 (stereo partly shown) [compound 247] | 0.13
COc1nc(-c2cccc(-c3cccc(-c4cnc(CNC(CO)CF)c(OC)n4)c3Cl)c2Cl)cnc1CNC[C@@H]1CCC(=O)N1 (stereo partly shown) [compound 248] | 0.18
COCC(NCc1ncc(-c2cccc(-c3cccc(-c4cnc(CNC[C@@H]5CCC(=O)N5)c(OC)n4)c3Cl)c2Cl)nc1OC)C(F)(F)F (stereo partly shown) [compound 249] | 2.67

Second part, the compound after the results:

IC50 [nM] | SMILES
0.17 | COc1nc(-c2cccc(-c3cccc(-c4cnc(CNC[C@H]5CCC(=O)N5)c(OC)n4)c3Cl)c2Cl)cnc1CNCC1CNC(=O)C1 (stereo partly shown) [compound 196]
0.23 | COc1nc(-c2cccc(-c3cccc(-c4cnc(CN5CCC6(CCC(=O)N6)C5)c(OC)n4)c3Cl)c2Cl)cnc1CNC[C@H]1CCC(=O)N1 (stereo partly shown) [compound 197]
0.121 | COc1nc(-c2cccc(-c3cccc(-c4cnc(CN5CC[C@@H](NC(C)=O)C5)c(OC)n4)c3Cl)c2Cl)cnc1CNC[C@H]1CCC(=O)N1 [compound 198]
0.132 | COc1nc(-c2cccc(-c3cccc(-c4cnc(CN[C@H]5CNC(=O)C5)c(OC)n4)c3Cl)c2Cl)cnc1CNC[C@H]1CCC(=O)N1 [compound 200]
0.28 | COc1nc(-c2cccc(-c3cccc(-c4cnc(CNC[C@H]5CCC(=O)N5)c(OC)n4)c3Cl)c2Cl)cnc1CNCCc1ncc[nH]1 [compound 201]
0.129 | COc1nc(-c2cccc(-c3cccc(-c4cnc(CN5CCC6(CCC(=O)N6)CC5)c(OC)n4)c3Cl)c2Cl)cnc1CNC[C@H]1CCC(=O)N1 [compound 203]
0.11 | COc1nc(-c2cccc(-c3cccc(-c4cnc(CN5CC[C@H](NC(C)=O)C5)c(OC)n4)c3Cl)c2Cl)cnc1CNC[C@H]1CCC(=O)N1 [compound 204]
0.079 | COc1nc(-c2cccc(-c3cccc(-c4cnc(CNC5CCCN(C(C)=O)C5)c(OC)n4)c3Cl)c2Cl)cnc1CNC[C@H]1CCC(=O)N1 (stereo partly shown) [compound 205]
0.113 | COc1nc(-c2cccc(-c3cccc(-c4cnc(CNC5CCN(C(C)=O)CC5)c(OC)n4)c3Cl)c2Cl)cnc1CNC[C@H]1CCC(=O)N1 [compound 206]
0.104 | COc1nc(-c2cccc(-c3cccc(-c4cnc(CN5CC6(CNC(=O)N6)C5)c(OC)n4)c3Cl)c2Cl)cnc1CNC[C@H]1CCC(=O)N1 [compound 207]
0.175 | COc1nc(-c2cccc(-c3cccc(-c4cnc(CN5CC6(C5)CN(C(C)=O)C6)c(OC)n4)c3Cl)c2Cl)cnc1CN1CC2(C1)CN(C(C)=O)C2 [compound 209]
0.3 | COc1nc(-c2cccc(-c3cccc(-c4cnc(CNCC5(C)COC(=O)N5)c(OC)n4)c3Cl)c2Cl)cnc1CNC[C@@H]1CCC(=O)N1 (stereo partly shown) [compound 210]
0.095 | COc1nc(-c2cccc(-c3cccc(-c4cnc(CNC[C@@H]5CCC(=O)N5)c(OC)n4)c3Cl)c2Cl)cnc1CNCCN1CCNC1=O [compound 211]
0.26 | COc1nc(-c2cccc(-c3cccc(-c4cnc(CNC[C@@H]5CCC(=O)N5)c(OC)n4)c3Cl)c2Cl)cnc1CNCCn1ccc(C)n1 [compound 214]
0.14 | COc1nc(-c2cccc(-c3cccc(-c4cnc(CNC5CC(CC(N)=O)C5)c(OC)n4)c3Cl)c2Cl)cnc1CNC[C@@H]1CCC(=O)N1 (stereo partly shown) [compound 217]
0.14 | COc1nc(-c2cccc(-c3cccc(-c4cnc(CNCC5(S(C)(=O)=O)CC5)c(OC)n4)c3Cl)c2Cl)cnc1CNC[C@@H]1CCC(=O)N1 [compound 218]
0.19 | COc1nc(-c2cccc(-c3cccc(-c4cnc(CNC[C@@H]5C[C@H]5c5cccnc5)c(OC)n4)c3Cl)c2Cl)cnc1CNC[C@@H]1CCC(=O)N1 [compound 219]
0.227 | COC[C@H]1C[C@@H](NCc2ncc(-c3cccc(-c4cccc(-c5cnc(CNC[C@@H]6CCC(=O)N6)c(OC)n5)c4Cl)c3Cl)nc2OC)C1 [compound 221]
0.291 | COc1nc(-c2cccc(-c3cccc(-c4cnc(CNC5CCC([S+](C)[O-])C5)c(OC)n4)c3Cl)c2Cl)cnc1CNC[C@@H]1CCC(=O)N1 (stereo partly shown) [compound 222]
0.288 | COCCC1CN(Cc2ncc(-c3cccc(-c4cccc(-c5cnc(CNC[C@@H]6CCC(=O)N6)c(OC)n5)c4Cl)c3Cl)nc2OC)C1 [compound 225]
0.474 | CC[C@@H]1OCC[C@H]1NCc1ncc(-c2cccc(-c3cccc(-c4cnc(CNC[C@@H]5CCC(=O)N5)c(OC)n4)c3Cl)c2Cl)nc1OC [compound 226]
0.136 | COc1nc(-c2cccc(-c3cccc(-c4cnc(CNC[C@@H]5CCC(=O)N5)c(OC)n4)c3Cl)c2Cl)cnc1CNCC1CCN(C(C)=O)C1 (stereo partly shown) [compound 227]
0.229 | COc1nc(-c2cccc(-c3cccc(-c4cnc(CN5CC[C@@H](C)[C@@H](O)C5)c(OC)n4)c3Cl)c2Cl)cnc1CNC[C@@H]1CCC(=O)N1 [compound 229]
0.331 | COc1nc(-c2cccc(-c3cccc(-c4cnc(CN5C[C@@H]6CCC[C@]6(CO)C5)c(OC)n4)c3Cl)c2Cl)cnc1CNC[C@@H]1CCC(=O)N1 [compound 230]
0.064 | COc1nc(-c2cccc(-c3cccc(-c4cnc(CNC[C@@H]5CCC(=O)N5)c(OC)n4)c3Cl)c2Cl)cnc1CNCCC1CCCO1 (stereo partly shown) [compound 236]
0.08 | COc1nc(-c2cccc(-c3cccc(-c4cnc(CNC[C@@H]5CC(C)(C)C(=O)N5)c(OC)n4)c3Cl)c2Cl)cnc1CNC[C@@H]1CC(C)(C)C(=O)N1 [compound 244]
0.15 | COc1nc(-c2cccc(-c3cccc(-c4cnc(CNC[C@@H]5CC(C)(C)C(=O)N5)c(OC)n4)c3Cl)c2Cl)cnc1CNC[C@@H]1CCC(=O)N1 [compound 245]
0.21 | COc1nc(-c2cccc(-c3cccc(-c4cnc(CNC[C@@H]5COC(=O)N5)c(OC)n4)c3Cl)c2Cl)cnc1CNC[C@@H]1CCC(=O)N1 [compound 246]
0.12 | COc1nc(-c2cccc(-c3cccc(-c4cnc(CN5CCN[C@@H](C)C5)c(OC)n4)c3Cl)c2Cl)cnc1CNC[C@@H]1CCC(=O)N1 [compound 250]
